Values quoted from earlier work as cited in patent US4707498A, “Fluorinated diaminoalkyne derivatives” (Merrell Dow Pharmaceuticals Inc., priority 1986, dated 1987).

System: tumor
Details: MGBG intravenously once or twice week

CC(C=NNC(=N)N)=NNC(=N)N [MGBG, methylglyoxal bis(guanylhydrazone)]
complete disappearance of the disease (number of treated patients) (65 treated patients): two of the 65 | regression of the tumor (patients in advanced stages of carcinoma, lymphoma, hepatoma, melanoma, leukemia or sarcoma): measurable regression of the tumor in many of the patients treated
